Test results reported in US9049864B2, “Pyridazinone herbicidal compounds” (Syngenta Limited, priority 2012, dated 2015).

Tests used:
Experiment in all cases: Post-emergence herbicidal glasshouse test, percentage damage to the plant
Format in all cases: in vivo
[1] = system: Echinochloa crus-galli (ECHCG)
Protocol: (§1) Seeds of a variety of test species are sown in standard soil in pots:—Solanum nigrum (SOLNI), Amaranthus retoflexus (AMARE), Setaria faberi (SETFA), Alopecurus myosuroides (ALOMY), Echinochloa crus-galli (ECHCG), Ipomoea hederacea (IPOHE). After 8 days cultivation (post-emergence) under controlled conditions in a glasshouse (at 24/16° C., day/night; 14 hours light; 65% humidity), the plants are sprayed with an aqueous spray solution derived from the formulation of the technical active ingredient in acetone/water (50:50) solution containing 0.5% Tween 20 (polyoxyethelyene sorbitan monolaurate, CAS RN 9005-64-5). Compounds are applied at 1000 g/ha. The test plants are then grown in a glasshouse under controlled conditions in a glasshouse (at 24/16° C., day/night; 14 hours light; 65% humidity) and watered twice daily. After 13 days, the test is evaluated for the percentage damage caused to the plant. The biological activities are shown in the following table on a five point scale (5=80-100%; 4=60-79%; 3=40-59%; 2=20-39%; 1=0-19%). A comparative experiment is conducted to compare the biological efficacy of a compound of the present invention with those of WO 2011/045271. The test is performed as outlined above using the following compounds. Three different application rates are employed (250 g/ha, 500 g/ha and 1000 g/ha).

[2] = system: Solanum nigrum (SOLNI)
Protocol: as §1

[3] = system: Amaranthus retoflexus (AMARE)
Protocol: as §1

[4] = system: Alopecurus myosuroides (ALOMY)
Protocol: as §1

[5] = system: Setaria faberi (SETFA)
Protocol: as §1

[6] = system: Ipomoea hederacea (IPOHE)
Protocol: as §1

[7] = comparative experiment, rate 250 g/ha
[8] = comparative experiment, rate 500 g/ha
[9] = comparative experiment, rate 1000 g/ha
[10] = post-emergence, 1000 g/ha, evaluated after 13 days

Row | SMILES | POST Application ECHCG, percentage damage (five point scale) [1, 10] | POST Application SOLNI, percentage damage (five point scale) [2, 10] | POST Application AMARE, percentage damage (five point scale) [3, 10] | POST Application ALOMY, percentage damage (five point scale) [4, 10] | POST Application SETFA, percentage damage (five point scale) [5, 10] | POST Application IPOHE, percentage damage (five point scale) [6, 10] | further results
1 | CN1N=CC(=O)C(n2nc(Cl)c3ccccc32)C1=O (stereo not drawn) [Compound 1.001, 4-(3-chloroindazol-1-yl)-2-methyl-pyridazine-3,5-dione] | 4 (4=60-79%) | 5 (5=80-100%) | 5 (5=80-100%) | 1 (1=0-19%) | 2 (2=20-39%) | 5 (5=80-100%) | POST Application ECHCG, percentage damage (five point scale) [1, 7]: 2 (2=20-39%); POST Application ECHCG, percentage damage (five point scale) [1, 8]: 3 (3=40-59%); POST Application ECHCG, percentage damage (five point scale) [1, 9]: 3 (3=40-59%); POST Application SOLNI, percentage damage (five point scale) [2, 7]: 5 (5=80-100%); POST Application SOLNI, percentage damage (five point scale) [2, 8]: 5 (5=80-100%); POST Application SOLNI, percentage damage (five point scale) [2, 9]: 5 (5=80-100%); POST Application AMARE, percentage damage (five point scale) [3, 7]: 4 (4=60-79%); POST Application AMARE, percentage damage (five point scale) [3, 8]: 4 (4=60-79%); POST Application AMARE, percentage damage (five point scale) [3, 9]: 4 (4=60-79%); POST Application ALOMY, percentage damage (five point scale) [4, 7]: 2 (2=20-39%); POST Application ALOMY, percentage damage (five point scale) [4, 8]: 2 (2=20-39%); POST Application ALOMY, percentage damage (five point scale) [4, 9]: 2 (2=20-39%); POST Application SETFA, percentage damage (five point scale) [5, 7]: 1 (1=0-19%); POST Application SETFA, percentage damage (five point scale) [5, 8]: 1 (1=0-19%); POST Application SETFA, percentage damage (five point scale) [5, 9]: 3 (3=40-59%); POST Application IPOHE, percentage damage (five point scale) [6, 7]: 5 (5=80-100%); POST Application IPOHE, percentage damage (five point scale) [6, 8]: 5 (5=80-100%); POST Application IPOHE, percentage damage (five point scale) [6, 9]: 5 (5=80-100%)
2 | CC1=NN(C)C(=O)C(n2ccc3ccccc32)C1=O (stereo not drawn) [Compound 1.002] | 1 (1=0-19%) | 5 (5=80-100%) | 4 (4=60-79%) | 1 (1=0-19%) | 1 (1=0-19%) | 4 (4=60-79%) | –
3 | CC1=NN(C)C(=O)C(n2c(Cl)c(Cl)c3ccccc32)C1=O (stereo not drawn) [Compound 1.003, 4-(2,3-dichloroindol-1-yl)-2,6-dimethyl-pyridazine-3,5-dione] | 2 (2=20-39%) | 5 (5=80-100%) | 5 (5=80-100%) | 1 (1=0-19%) | 1 (1=0-19%) | 5 (5=80-100%) | –
4 | CN1N=CC(=O)C(n2ccc3cc(Br)ccc32)C1=O (stereo not drawn) [Compound 1.004] | 1 (1=0-19%) | 4 (4=60-79%) | 1 (1=0-19%) | 1 (1=0-19%) | 1 (1=0-19%) | 1 (1=0-19%) | –
5 | CN1N=CC(=O)C(n2ccc3c(Br)cccc32)C1=O (stereo not drawn) [Compound 1.005] | 1 (1=0-19%) | 5 (5=80-100%) | 2 (2=20-39%) | 1 (1=0-19%) | 3 (3=40-59%) | 2 (2=20-39%) | –
6 | CN1N=CC(=O)C(n2ccc3ccc(Br)cc32)C1=O (stereo not drawn) [Compound 1.006] | 1 (1=0-19%) | 4 (4=60-79%) | 1 (1=0-19%) | 1 (1=0-19%) | 1 (1=0-19%) | 1 (1=0-19%) | –
7 | Cc1cn(C2C(=O)C=NN(C)C2=O)c2ccccc12 (stereo not drawn) [Compound 1.007] | 1 (1=0-19%) | 5 (5=80-100%) | 2 (2=20-39%) | 1 (1=0-19%) | 1 (1=0-19%) | 1 (1=0-19%) | –
8 | Cc1cccc2ccn(C3C(=O)C=NN(C)C3=O)c12 (stereo not drawn) [Compound 1.008] | 1 (1=0-19%) | 4 (4=60-79%) | 1 (1=0-19%) | 1 (1=0-19%) | 1 (1=0-19%) | 2 (2=20-39%) | –
9 | CN1N=CC(=O)C(n2ncc3ccccc32)C1=O (stereo not drawn) [Compound 1.009] | 1 (1=0-19%) | 4 (4=60-79%) | 4 (4=60-79%) | 1 (1=0-19%) | 1 (1=0-19%) | 1 (1=0-19%) | –
10 | CC(C)N1N=CC(=O)C(n2cc(Cl)c3ccccc32)C1=O (stereo not drawn) [Compound 1.010] | 1 (1=0-19%) | 3 (3=40-59%) | 1 (1=0-19%) | 1 (1=0-19%) | 1 (1=0-19%) | 1 (1=0-19%) | –
11 | CN1N=CC(=O)C(n2cc(Cl)c3ccccc32)C1=O (stereo not drawn) [Compound 1.012, 4-(3-Chloro-indol-1-yl)-2-methyl-2H-pyridazine-3,5-dione] | 2 (2=20-39%) | 5 (5=80-100%) | 5 (5=80-100%) | 1 (1=0-19%) | 5 (5=80-100%) | 5 (5=80-100%) | –
12 | CN1N=CC(=O)C(n2c(Cl)c(Cl)c3ccccc32)C1=O (stereo not drawn) [Compound 1.013] | 1 (1=0-19%) | 5 (5=80-100%) | 5 (5=80-100%) | 1 (1=0-19%) | 2 (2=20-39%) | 5 (5=80-100%) | –
13 | CN1N=CC(=O)C(n2ccc3ccccc32)C1=O (stereo not drawn) [Compound 1.014] | 4 (4=60-79%) | 5 (5=80-100%) | 3 (3=40-59%) | 1 (1=0-19%) | 1 (1=0-19%) | 4 (4=60-79%) | –
14 | CN1N=CC(=O)C(n2cc(Cl)c3cc(Cl)ccc32)C1=O (stereo not drawn) [Compound 1.016] | 1 (1=0-19%) | 5 (5=80-100%) | 2 (2=20-39%) | 1 (1=0-19%) | 1 (1=0-19%) | 4 (4=60-79%) | –
